The source of these data is US9951065B2 (Gilead Sciences, Inc., priority 2015, dated 2018).

Structures are written as SMILES.

For the experiment, the target named is T1, IDO1 (Homo sapiens, UniProt P14902).
T1 construct: HeLa cells were treated with a test compound in the presence of IFNγ, which induces IDO1 expression; host or cells: H1-HeLa cells, IDO1 induced with IFNγ
T1 sequence (P14902 whole entry): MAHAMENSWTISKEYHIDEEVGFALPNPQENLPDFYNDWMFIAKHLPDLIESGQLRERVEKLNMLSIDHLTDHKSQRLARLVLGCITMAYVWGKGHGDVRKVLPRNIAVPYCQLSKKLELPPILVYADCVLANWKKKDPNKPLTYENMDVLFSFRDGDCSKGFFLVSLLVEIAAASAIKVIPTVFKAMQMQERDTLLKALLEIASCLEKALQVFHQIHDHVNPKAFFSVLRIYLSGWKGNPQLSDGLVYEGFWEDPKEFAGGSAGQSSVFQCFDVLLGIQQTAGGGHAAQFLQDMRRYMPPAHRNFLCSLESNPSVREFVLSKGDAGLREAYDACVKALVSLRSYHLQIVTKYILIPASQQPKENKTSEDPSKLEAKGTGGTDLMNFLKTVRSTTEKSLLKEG
In words: Cell-based (HeLa) assay for measurement of IDO1 inhibition (kynurenine levels in supernatant after IFNγ induction). Conditions: HeLa cells, IFNγ-induced IDO1, kynurenine in supernatant after 48 hour incubation; geometric mean of a minimum of four determinations. The gist of the method: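 IDO1 activity is read as kynurenine released into the medium, detected with Ehrlich's reagent (p-dimethylaminobenzaldehyde) at 480 nm after TCA treatment. HeLa cells were exposed 48 h to compounds in 0.5% DMSO alongside IFNγ induction. Values normalized to no-IFNγ and IFNγ controls; four-parameter EC50 given as geometric mean of ≥4 determinations.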
For the compound `CN(CCNc1nc2nccc(/C(=N/O)Nc3ccc(F)c(Cl)c3)c2[nH]1)CC(F)F` [Example 220, N-(3-chloro-4-fluorophenyl)-2-((2-((2,2-difluoroethyl)(methyl)amino)ethyl)amino)-N′-hydroxy-1H-imidazo[4,5-b]pyridine-7-carboximidamide], a half-maximal response (EC50) required 2.38 µM.

For `O/N=C(\Nc1ccc(F)c(Cl)c1)c1ccnc2nc(NCCCN3CCOCC3)[nH]c12` [Example 221, N-(3-chloro-4-fluorophenyl)-N′-hydroxy-2-((3-morpholinopropyl)amino)-1H-imidazo[4,5-b]pyridine-7-carboximidamide], the EC50 (as a rule, the concentration at which the effect is half-maximal) amounted to 0.899 µM. Against the preceding compound, the EC50 is about 2.6-fold lower.

In turn, `O/N=C(\Nc1ccc(F)c(Cl)c1)c1ccnc2nc(NCCN3CCCCC3)[nH]c12` [Example 222, N-(3-chloro-4-fluorophenyl)-N′-hydroxy-2-((2-(piperidin-1-yl)ethyl)amino)-1H-imidazo[4,5-b]pyridine-7-carboximidamide] yielded an EC50 of 1.52 µM.

Compound `O/N=C(\Nc1ccc(F)c(Cl)c1)c1ccnc2nc(NCCC3CCCCC3)[nH]c12` [Example 223, N-(3-chloro-4-fluorophenyl)-2-((2-cyclohexylethyl)amino)-N′-hydroxy-1H-imidazo[4,5-b]pyridine-7-carboximidamide] registered an EC50 of 2.18 µM.

Compound `O/N=C(\Nc1ccc(F)c(Cl)c1)c1ccnc2nc(NCCC3CCOCC3)[nH]c12` [Example 224, N-(3-chloro-4-fluorophenyl)-N′-hydroxy-2-((2-(tetrahydro-2H-pyran-4-yl)ethyl)amino)-1H-imidazo[4,5-b]pyridine-7-carboximidamide] returned an EC50 of 3.74 µM.

Compound `O/N=C(\Nc1ccc(F)c(Cl)c1)c1ccnc2nc(NCC(F)F)[nH]c12` [Example 225, N-(3-chloro-4-fluorophenyl)-2-((2,2-difluoroethyl)amino)-N′-hydroxy-1H-imidazo[4,5-b]pyridine-7-carboximidamide] returned an EC50 of 2.19 µM.

As for `O/N=C(\Nc1ccc(F)c(Cl)c1)c1ccnc2nc(NC3COC3)[nH]c12` [Example 226, N-(3-chloro-4-fluorophenyl)-N′-hydroxy-2-(oxetan-3-ylamino)-1H-imidazo[4,5-b]pyridine-7-carboximidamide], the EC50 is above 10 µM.

The compound `O/N=C(\Nc1ccc(F)c(Cl)c1)c1ccnc2nc(NC3CCOC3)[nH]c12` (stereo not shown) [Example 227, N-(3-chloro-4-fluorophenyl)-N′-hydroxy-2-((tetrahydrofuran-3-yl)amino)-1H-imidazo[4,5-b]pyridine-7-carboximidamide] had an EC50 of 2.19 µM.

In the case of `O/N=C(\Nc1ccc(F)c(Cl)c1)c1ccnc2nc(NC3CCOCC3)[nH]c12` [Example 228, N-(3-chloro-4-fluorophenyl)-N′-hydroxy-2-((tetrahydro-2H-pyran-4-yl)amino)-1H-imidazo[4,5-b]pyridine-7-carboximidamide], the EC50 amounted to 2.14 µM.

With `NC(=O)CCNc1nc2c(F)c(F)cc(/C(=N/O)Nc3ccc(F)c(Cl)c3)c2[nH]1` [Example 229], the EC50 is above 10 µM.

`O/N=C(\Nc1ccc(F)c(Cl)c1)c1ccnc2nc(NCCNCC(F)F)[nH]c12` [Example 230, N-(3-chloro-4-fluorophenyl)-2-((2-((2,2-difluoroethyl)amino)ethyl)amino)-N′-hydroxy-1H-imidazo[4,5-b]pyridine-7-carboximidamide] had an EC50 of 3.84 µM.

Consider `CN(CCNc1nc2nccc(/C(=N/O)Nc3ccc(F)c(Cl)c3)c2[nH]1)C1CC1` [Example 231, N-(3-chloro-4-fluorophenyl)-2-((2-(cyclopropyl(methyl)amino)ethyl)amino)-N′-hydroxy-1H-imidazo[4,5-b]pyridine-7-carboximidamide], for which a half-maximal effect (EC50) was put at 0.291 µM. This EC50 is about 13-fold lower than that of the compound before.

As to `COCCN(CCNc1nc2nccc(/C(=N/O)Nc3ccc(F)c(Cl)c3)c2[nH]1)C1CC1` [Example 232, N-(3-chloro-4-fluorophenyl)-2-((2-(cyclopropyl(2-methoxyethyl)amino)ethyl)amino)-N′-hydroxy-1H-imidazo[4,5-b]pyridine-7-carboximidamide], the EC50 worked out at 0.46 µM.

`O/N=C(\Nc1ccc(F)c(Cl)c1)c1ccnc2nc(NCCN3CCC3)[nH]c12` [Example 233, 2-((2-(azetidin-1-yl)ethyl)amino)-N-(3-chloro-4-fluorophenyl)-N′-hydroxy-1H-imidazo[4,5-b]pyridine-7-carboximidamide]: the EC50 was 1.12 µM.

`COCCCNc1nc2nccc(/C(=N/O)Nc3ccc(F)c(Cl)c3)c2[nH]1` [Example 234, N-(3-chloro-4-fluorophenyl)-N′-hydroxy-2-((3-methoxypropyl)amino)-1H-imidazo[4,5-b]pyridine-7-carboximidamide] came in with an EC50 of 0.698 µM. This EC50 is about 1.6-fold lower than that of the compound before.

For `O=C1CCCN1CCNc1nc2nccc(/C(=N/O)Nc3ccc(F)c(Cl)c3)c2[nH]1` [Example 235, N-(3-chloro-4-fluorophenyl)-N′-hydroxy-2-((2-(2-oxopyrrolidin-1-yl)ethyl)amino)-1H-imidazo[4,5-b]pyridine-7-carboximidamide], the EC50 is 4.82 µM. Against the preceding compound, the EC50 is about 6.9-fold higher.

Compound `O=S(=O)(CCNc1nc2nccc(/C(=N/O)Nc3ccc(F)c(Cl)c3)c2[nH]1)N1CCOCC1` [Example 236, N-(3-chloro-4-fluorophenyl)-N′-hydroxy-2-((2-(morpholinosulfonyl)ethyl)amino)-1H-imidazo[4,5-b]pyridine-7-carboximidamide] showed an EC50 of 4.77 µM.

Turning to `O/N=C(\Nc1ccc(F)c(Cl)c1)c1ccnc2nc(NCCN3CCCC(F)C3)[nH]c12` (stereo not shown) [Example 237, N-(3-chloro-4-fluorophenyl)-2-((2-(3-fluoropiperidin-1-yl)ethyl)amino)-N′-hydroxy-1H-imidazo[4,5-b]pyridine-7-carboximidamide], it took 0.442 µM to reach a half-maximal effect (EC50). Against the preceding compound, the EC50 is about 11-fold lower.

Take `O/N=C(\Nc1ccc(F)c(Br)c1)c1ccnc2nc(NCCN3CCOCC3)[nH]c12` [Example 238, N-(3-bromo-4-fluorophenyl)-N′-hydroxy-2-((2-morpholinoethyl)amino)-1H-imidazo[4,5-b]pyridine-7-carboximidamide]: the half-maximal effective concentration (EC50) worked out at 0.853 µM. This EC50 lies about 1.9-fold higher than the previous one.

Compound `CN(CCNc1nc2nccc(/C(=N/O)Nc3ccc(F)c(Cl)c3)c2[nH]1)C1CCOCC1` [Example 239, N-(3-chloro-4-fluorophenyl)-N′-hydroxy-2-((2-(methyl(tetrahydro-2H-pyran-4-yl)amino)ethyl)amino)-1H-imidazo[4,5-b]pyridine-7-carboximidamide] came in with a 50% effective concentration (EC50) of 1.21 µM.

The compound `CC(C)N(C)CCNc1nc2nccc(/C(=N/O)Nc3ccc(F)c(Cl)c3)c2[nH]1` [Example 240, N-(3-chloro-4-fluorophenyl)-N′-hydroxy-2-((2-(isopropyl(methyl)amino)ethyl)amino)-1H-imidazo[4,5-b]pyridine-7-carboximidamide] yielded an EC50 of 0.59 µM.

Compound `NC1(CNc2nc3nccc(/C(=N/O)Nc4ccc(F)c(Cl)c4)c3[nH]2)CC1` [Example 241, 2-(((1-aminocyclopropyl)methyl)amino)-N-(3-chloro-4-fluorophenyl)-N′-hydroxy-1H-imidazo[4,5-b]pyridine-7-carboximidamide] returned an EC50 of 1.37 µM.

`NC1(CCNc2nc3nccc(/C(=N/O)Nc4ccc(F)c(Cl)c4)c3[nH]2)CC1` [Example 242, 2-((2-(1-aminocyclopropyl)ethyl)amino)-N-(3-chloro-4-fluorophenyl)-N′-hydroxy-1H-imidazo[4,5-b]pyridine-7-carboximidamide] had an EC50 of 1.63 µM.

Take `CNc1nc2nccc(/C(=N/O)Nc3ccc(F)c(Br)c3)c2[nH]1` [Example 257, N-(3-bromo-4-fluorophenyl)-N′-hydroxy-2-(methylamino)-1H-imidazo[4,5-b]pyridine-7-carboximidamide]: the midpoint of the response, the EC50, lay at 0.241 µM. This EC50 is about 6.8-fold lower than that of the compound before.

Consider `O/N=C(\Nc1ccc(F)c(Cl)c1)c1ccnc2nc(CCN3CCCCCC3)[nH]c12` [Example 258, 2-(2-(azepan-1-yl)ethyl)-N-(3-chloro-4-fluorophenyl)-N′-hydroxy-1H-imidazo[4,5-b]pyridine-7-carboximidamide], for which the EC50 turned out to be 0.844 µM.

In turn, `O/N=C(\Nc1ccc(F)c(Cl)c1)c1ccnc2nc(CCN3CCC3)[nH]c12` [Example 259, 2-(2-(azetidin-1-yl)ethyl)-N-(3-chloro-4-fluorophenyl)-N′-hydroxy-1H-imidazo[4,5-b]-pyridine-7-carboximidamide] yielded an EC50 of 1.3 µM.

`O/N=C(\Nc1ccc(F)c(Cl)c1)c1ccnc2nc(CCN3CC[C@@H](O)C3)[nH]c12` [Example 260, (R)—N-(3-chloro-4-fluorophenyl)-N′-hydroxy-2-(2-(3-hydroxypyrrolidin-1-yl)ethyl)-1H-imidazo[4,5-b]pyridine-7-carboximidamide] gave an EC50 of 3.21 µM.

Compound `O/N=C(\Nc1ccc(F)c(Cl)c1)c1ccnc2nc(CCN3CC[C@H](O)C3)[nH]c12` [Example 261, (S)—N-(3-chloro-4-fluorophenyl)-N′-hydroxy-2-(2-(3-hydroxypyrrolidin-1-yl)ethyl)-1H-imidazo[4,5-b]pyridine-7-carboximidamide] displayed an EC50 of 3.45 µM.

Regarding `O/N=C(\Nc1ccc(F)c(Cl)c1)c1ccnc2nc(CCN3CCC(O)CC3)[nH]c12` [Example 262, N-(3-chloro-4-fluorophenyl)-N′-hydroxy-2-(2-(4-hydroxypiperidin-1-yl)ethyl)-1H-imidazo[4,5-b]pyridine-7-carboximidamide], the midpoint of the response, the EC50, lay at 3.24 µM.

Consider `CN(C)CCc1nc2nccc(/C(=N/O)Nc3ccc(F)c(Br)c3)c2[nH]1` [Example 263, N-(3-bromo-4-fluorophenyl)-2-(2-(dimethylamino)ethyl)-N′-hydroxy-1H-imidazo[4,5-b]pyridine-7-carboximidamide], for which the EC50 turned out to be 0.559 µM.

Consider `CN(C)CCc1nc2nccc(/C(=N/O)Nc3cccc(Cl)c3)c2[nH]1` [Example 264, N-(3-chlorophenyl)-2-(2-(dimethylamino)ethyl),N′-hydroxy-1H-imidazo[4,5-b]pyridine-7-carboximidamide], for which the EC50 amounted to 0.722 µM.
